In patent US20250213603A1, “PHARMACEUTICAL COMPOSITION FOR TREATING CANCER” (SAGA UNIVERSITY, priority 2021, published 2025):

Legend:
Assay type in all cases: cell-based
[1] = tested on: KBM5-STI; experiment: Cell proliferation inhibition, modified MTT assay (Cell Counting Kit-8); details: incubation for 72 hours, average±SD of 3 independent experiments
Protocol: (§1) The proliferation inhibitory action in leukemia cell lines was evaluated using a modified dimethyl-thiazole-diphenyl-tetrazolium (MTT) assay as follows.
(§2) The hepatocyte line and leukemia cell lines (K562, BV173, Ba/F3 p190, Ba/F3 p210, MYL-R, K562-IMR, and KBM5-STI) were used in this example. The FA-HP-β-CyD synthesized in Example 1 was used.
(§3) The cell viability was evaluated using the trypan blue dye exclusion method. Cell proliferation was evaluated using a Cell Counting Kit-8 (Dojindo, Japan), which is an MTT assay. 2×10^4 of each cell was seeded with 100 μL RPMI1640 medium (Sigma-Aldrich, USA) per well to a flatbottom 96-well plate (Greiner Labortechnik, Hamburg, Germany), and incubation for 72 hours was carried out with exposure to HP-β-CyD and FA-HP-β-CyD at different concentrations (0 mM (control: CT), 0.05 mM, 0.1 mM, 0.25 mM, 0.5 mM, and 1 mM).

[2] = tested on: hepatocyte; experiment: as above; details: hepatocyte line, incubation for 72 hours, average±SD of 3 independent experiments
Protocol: as §1, §2, §3

[3] = tested on: MYL-R; experiment: as above; details: incubation for 72 hours, average±SD of 3 independent experiments
Protocol: as §1, §2, §3

[4] = tested on: Ba/F3 P190; experiment: as above
Protocol: as §1, §2, §3

[5] = tested on: Ba/F3 P210; experiment: as above; details: Ba/F3 P210, incubation for 72 hours, average±SD of 3 independent experiments
Protocol: as §1, §2, §3

[6] = tested on: BV173; experiment: as above
Protocol: as §1, §2, §3

[7] = tested on: K562-IMR; experiment: as above; details: incubation for 72 hours, average±SD of 3 independent experiments
Protocol: as §1, §2, §3

[8] = tested on: K562; experiment: as above
Protocol: as §1, §2, §3

[9] = tested on: BV173; experiment: Effect of autophagy inhibition on the cell proliferation inhibitory effect; details: 5 mM FA-HP-β-CyD or 15 mM HP-β-CyD, chloroquine, bafilomycin A1 or LY294002 (FIG. 8)
Protocol: (§4) The effect of autophagy inhibition on the cell proliferation inhibitory effect was evaluated as follows.
(§5) Leukemia cell lines (K562 and BV173) were used in this example. The FA-HP-β-CyD synthesized in Example 1 was used.
(§6) 2×10^5 of each cell with 100 μL RPMI1640 medium (Sigma-Aldrich, USA) was seeded per well to a flatbottom 96-well plate (Greiner Labortechnik, Hamburg, Germany), and treatment was carried out for 2 hours at 37° C. with 5 mM FA-HP-β-CyD and 15 mM HP-β-CyD. Pretreatment was then carried out for 24 hours with the autophagy inhibitors chloroquine (20 μM) (FUJIFILM Wako Pure Chemical Corporation), bafilomycin A1 (1 nM) (Funakoshi), or LY294002 (50 μM) (FUJIFILM Wako Pure Chemical Corporation). Cell proliferation was then evaluated using a Cell Counting Kit-8 (Dojindo, Japan), which is a modified dimethyl-thiazole-diphenyl-tetrazolium (MTT) assay.
(§7) Here, the “CT” in FIG. 8 was evaluated as follows. Thus, 2×10^5 of each cell with 100 μL RPMI1640 medium was seeded per well to a flatbottom 96-well plate and culture was carried out for 2 hours+24 hours as in the exposure groups, but without exposure to the agent or autophagy inhibitor, and this was used as the CT. This CT was compared with the exposure groups.
(§8) Significant difference was determined as follows. That is, the data were analyzed using a two-sided Student's t-test without a comparison table. A value of P<0.05 was considered to indicate a significant difference.

[10] = tested on: K562; experiment: as above; details: 5 mM FA-HP-β-CyD or 15 mM HP-β-CyD, chloroquine, bafilomycin A1 or LY294002 (FIG. 8)
Protocol: as §4, §5, §6, §7, §8

[11] = tested on: BV173; experiment: Apoptosis, Annexin V/propidium iodide staining; details: BV173, 0.5, 1 and 1.5 mM, 48 hours (FIG. 5)
Protocol: (§9) The apoptosis of cells exposed to FA-HP-β-CyD was evaluated using Annexin V/propidium iodide (PI) staining as follows.
as §5
(§10) The apoptosis assay was performed by staining the cells with propidium iodide (PI) and Annexin V (BD Biosciences). The cells were cultured at a cell density of 4×10^5 cells/well on a 6-well plate and were incubated for 48 hours with FA-HP-β-CyD at different concentrations (0 mM (control: CT), 0.5 mM, 1 mM, and 1.5 mM). The cells were then stained with propidium iodide (PI) and Annexin V-APC (BD Biosciences) and analysis was performed using an FACSVerse flow cytometry system (BD Biosciences).

[12] = tested on: K562; experiment: Apoptosis, Annexin V/propidium iodide staining; details: K562, 0.5, 1 and 1.5 mM, 48 hours (FIG. 5)
Protocol: as §9, §5, §10

[13] = tested on: BV173; experiment: Cell proliferation inhibitory action in the presence of folic acid (MTT assay); details: BV173, 5 mM, FA 2 mM, 2 hours (FIG. 4)
Protocol: (§11) The cell proliferation inhibitory action on leukemia cell lines in the presence of folic acid (FA) was evaluated as follows using the MTT assay.
as §5
(§12) 2×10^4 of each cell with 100 μL of medium was seeded per well to a flatbottom 96-well plate (Greiner Labortechnik, Hamburg, Germany), and incubation for 2 hours at 37° C. was carried out in combination with medium containing HP-β-CyD (5 mM) and FA-HP-β-CyD (5 mM) in the presence or absence of FA (2 mM). Evaluation was then carried out using a Cell Counting Kit-8 (Dojindo, Japan), which is a modified dimethyl-thiazole-diphenyl-tetrazolium (MTT) assay.
(§13) The evaluation here was carried out as follows, respectively, for the “CT” and “only FA” in FIG. 4. Thus, 2×10^4 of each cell with 100 μL of medium was seeded per well to a flatbottom 96-well plate and incubation was carried out for 2 hours at 37° C.; this was evaluated as “CT”. Incubation for 2 hours at 37° C. while exposed to only FA was evaluated as “only FA”.
(§14) Significant difference was established as follows. A two sample t-test was performed on the agents under investigation (FA-HP-β-CyD with FA, FA-HP-β-CyD without FA). A significant difference is established when p<0.05 in the comparison of the two samples.

[14] = tested on: K562; experiment: as above; details: K562, 5 mM, FA 2 mM, 2 hours (FIG. 4)
Protocol: as §11, §5, §12, §13, §14

“folic acid-appended hydroxypropyl-β-cyclodextrin [FA-HP-β-CyD]” gave an IC50 [1] of 800 ± 120 µM, an IC50 [2] of 20100 ± 4500 µM and an IC50 [3] of 930 ± 110 µM. The IC50 ([4]; Ba/F3 P190, incubation for 72 hours, average±SD of 3 independent experiments) was 910 ± 160 µM, the cell proliferation ([4]; Ba/F3 p190, 0.05-1 mM, 72 hours (FIG. 2)) was “inhibited in a dose-dependent manner” and the IC50 [5] was 960 ± 17 µM. For the same substance, the cell proliferation ([6]; BV173, 0.05-1 mM, 72 hours (FIG. 2)) was “inhibited in a dose-dependent manner”, the IC50 ([6]; BV173, incubation for 72 hours, average±SD of 3 independent experiments) was 170 ± 64 µM and the IC50 [7] was 700 ± 55 µM. The cell proliferation ([8]; K562, 0.05-1 mM, 72 hours (FIG. 2)) was “inhibited in a dose-dependent manner”, the IC50 ([8]; K562, incubation for 72 hours, average±SD of 3 independent experiments) was 690 ± 190 µM and the “cell proliferation inhibitory capability on addition of an autophagy inhibitor” value [9] was “reduced by the addition of an autophagy inhibitor”. The “cell proliferation inhibitory capability on addition of an autophagy inhibitor” value [10] was “reduced by the addition of an autophagy inhibitor”, the apoptosis induction [11] was “induce apoptosis in a concentration dependent manner” and the apoptosis induction [12] was “induce apoptosis in a concentration dependent manner”. The “antitumor activity in the presence of FA compared to without FA” value [13] was “significantly reduced” and the “antitumor activity in the presence of FA compared to without FA” value [14] was “significantly reduced”.
